{
  "source": "paper PMC3196276",
  "about": "(2011)",
  "key": {"[1]": {"tested_on": "U25C (3WJ site mutant) (RNA, riboswitch) GGAGAGUAGAUGAUUCGCGUUAAGCGUGUGUGAAUGGGAUGUCGUCACACAACGAAGCGAGAGCGCGGUGAAUCAUUGCAUCCGCUCCA", "experiment": "ITC", "details": "6 mM MgCl2, 100 mM NaCl, 10 mM KCl; 10 mM HEPES pH 8.0, 1 mM DTT, 25 °C"}, "[2]": {"tested_on": "U7C (PK site mutant) (RNA, riboswitch) GGAGAGCAGAUGAUUCGCGUUAAGUGUGUGUGAAUGGGAUGUCGUCACACAACGAAGCGAGAGCGCGGUGAAUCAUUGCAUCCGCUCCA", "experiment": "ITC", "details": "6 mM MgCl2, 100 mM NaCl, 10 mM KCl; 10 mM HEPES pH 8.0, 1 mM DTT, 25 °C"}, "[3]": {"tested_on": "Smu wild type (wt) THF riboswitch aptamer, crystallization sequence (RNA, riboswitch) GGAGAGUAGAUGAUUCGCGUUAAGUGUGUGUGAAUGGGAUGUCGUCACACAACGAAGCGAGAGCGCGGUGAAUCAUUGCAUCCGCUCCA", "details": "apparent; ligand not given, THF from context"}},
  "data": [
    {"smiles": "Nc1nc2c(c(=O)[nH]1)N(C=O)[C@@H](CNc1ccc(C(=O)N[C@@H](CCC(=O)O)C(=O)O)cc1)CN2", "values": [
      {"measurement": "KD", "setting": "[1]", "value": "18 ± 1", "unit": "µM"},
      {"measurement": "KD", "setting": "[2]", "value": "23 ± 2", "unit": "µM"}
    ]},
    {"smiles": "Nc1nc2c(c(=O)[nH]1)N[C@@H](CNc1ccc(C(=O)N[C@@H](CCC(=O)O)C(=O)O)cc1)CN2", "values": [
      {"measurement": "KD,app", "setting": "[3]", "value": "18 ± 1", "unit": "µM"}
    ]}
  ]
}
